According to PubChem BioAssay AID330 (DTP/NCI, 2004):
Toxic doses and inconclusive results are not listed.

System: P388 leukemia ip, CD2F1 mice, survival T/C
Assay: NCI In Vivo Anticancer Drug Screen. Data for tumor model P388 Leukemia (intraperitoneal) in CD2F1 (CDF1) mice
Details: endpoint: median survival time, higher = longer survival
In short: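 Mice carrying the transplanted tumor received test compound or vehicle. Survival was recorded in each group, and the value is the treated-group measurement divided by that of the vehicle-treated control group.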

[1] = dose: 25.0 mg/kg/injection, schedule: Q01DX009 (ip), vehicle: saline with Tween-80
[2] = dose: 50.0 mg/kg/injection, schedule: Q01DX009 (ip), vehicle: saline with Tween-80
[3] = dose: 100.0 mg/kg/injection, schedule: Q01DX009 (ip), vehicle: saline with Tween-80
[4] = dose: 50.0 mg/kg/injection, schedule: Q01DX009 (ip), vehicle: Klucel (hydroxypropylcellulose) (HPC)
[5] = dose: 100.0 mg/kg/injection, schedule: Q01DX009 (ip), vehicle: Klucel (hydroxypropylcellulose) (HPC)
[6] = dose: 200.0 mg/kg/injection, schedule: Q01DX009 (ip), vehicle: Klucel (hydroxypropylcellulose) (HPC)
[7] = dose: 50.0 mg/kg/injection, schedule: Q01DX005 (ip), vehicle: Klucel (hydroxypropylcellulose) (HPC)
[8] = dose: 200.0 mg/kg/injection, schedule: Q01DX005 (ip), vehicle: Klucel (hydroxypropylcellulose) (HPC)
[9] = dose: 60.0 mg/kg/injection, schedule: Q01DX005 (ip), vehicle: saline with Tween-80
[10] = dose: 120.0 mg/kg/injection, schedule: Q01DX005 (ip), vehicle: saline with Tween-80
[11] = dose: 240.0 mg/kg/injection, schedule: Q01DX005 (ip), vehicle: saline with Tween-80
[12] = dose: 100.0 mg/kg/injection, schedule: Q01DX005 (ip), vehicle: Klucel (hydroxypropylcellulose) (HPC)

CCN1C(=O)Nc2ccc(Cl)cc2C1(O)c1ccccc1 (stereo not drawn)
T/C [1]: 95 % of control
T/C [2]: 102 % of control
T/C [3]: 99 % of control

O=C1CCCC(C(Sc2ccccc2)(Sc2ccccc2)Sc2ccccc2)C1 (stereo not drawn)
T/C [4]: 99 % of control
T/C [5]: 95 % of control
T/C [6]: 93 % of control

O=C1C2=C(Nc3cc(Cl)ccc3N2)OC1c1ccc(Cl)c(Cl)c1 (stereo not drawn)
T/C [7]: 92 % of control
T/C [8]: 88 % of control

COC(=O)c1nc(N)nc(C(=O)OC)c1C(=O)c1ccc(N2CCN(c3ccc(C(=O)c4c(C(=O)OC)nc(N)nc4C(=O)OC)cc3)CC2)cc1
T/C [9]: 98 % of control
T/C [10]: 97 % of control
T/C [11]: 91 % of control

COc1ccc(/C=C\C(C)=N\NC(=S)Nc2ccc(Cl)cc2)cc1
T/C (dose: 100.0 mg/kg/injection, schedule: Q01DX001 (ip), vehicle: Klucel (hydroxypropylcellulose) (HPC)): 103 % of control
T/C (dose: 200.0 mg/kg/injection, schedule: Q01DX001 (ip), vehicle: Klucel (hydroxypropylcellulose) (HPC)): 102 % of control
T/C (dose: 400.0 mg/kg/injection, schedule: Q01DX001 (ip), vehicle: Klucel (hydroxypropylcellulose) (HPC)): 103 % of control

c1ccc(CCN2CCC3(CC2)COCc2ccccc23)cc1
T/C (dose: 100.0 mg/kg/injection, schedule: Q01DX001 (ip), vehicle: saline with Tween-80): 96 % of control

Cc1nn(C)cc1P(=O)(c1ccccc1)c1ccccc1
T/C [7]: 98 % of control
T/C [12]: 96 % of control

CC1CCC2(C(=O)O)CCC3(C)C(=CCC4C5(C)CCC(O)C(C)(C)C5CCC43C)C2C1C (stereo not drawn)
T/C (dose: 22.0 mg/kg/injection, schedule: Q01DX010 (ip), vehicle: acetone): 108 % of control
T/C (dose: 35.0 mg/kg/injection, schedule: Q01DX010 (ip), vehicle: acetone): 95 % of control

CCN(CC)CC(O)c1c(-c2ccccc2)c(-c2ccccc2)c2n1CCC2 (stereo not drawn)
T/C [4]: 103 % of control
T/C [5]: 106 % of control
T/C [6]: 109 % of control

CC(=O)OCC1OC(n2cnc(C(N)=S)c2N)C(OC(C)=O)C1OC(C)=O (stereo not drawn)
T/C [9]: 100 % of control
T/C [10]: 103 % of control
T/C [11]: 110 % of control

CN(C)c1ccc(/C=C(\C#N)C(N)=S)cc1
T/C (dose: 50.0 mg/kg/injection, schedule: Q01DX009 (ip), vehicle: saline): 100 % of control
T/C (dose: 100.0 mg/kg/injection, schedule: Q01DX009 (ip), vehicle: saline): 100 % of control
T/C (dose: 200.0 mg/kg/injection, schedule: Q01DX009 (ip), vehicle: saline): 106 % of control

CC(C)(C)NC(=S)N/N=C/c1ccccc1O
T/C (dose: 50.0 mg/kg/injection, schedule: Q01DX005 (ip), vehicle: saline with Tween-80): 108 % of control
T/C (dose: 100.0 mg/kg/injection, schedule: Q01DX005 (ip), vehicle: saline with Tween-80): 109 % of control
T/C (dose: 200.0 mg/kg/injection, schedule: Q01DX005 (ip), vehicle: saline with Tween-80): 107 % of control

CC1CCCCN1CCCNC(=O)Nc1ccc(Cc2ccc(NC(=O)NCCCN3CCCCC3C)cc2)cc1 (stereo not drawn)
T/C (dose: 0.79 mg/kg/injection, schedule: Q01DX009 (ip), vehicle: Klucel (hydroxypropylcellulose) (HPC)): 95 % of control
T/C (dose: 1.56 mg/kg/injection, schedule: Q01DX009 (ip), vehicle: Klucel (hydroxypropylcellulose) (HPC)): 97 % of control

O=C(N=Nc1c(O)[nH]c2ccccc12)C(=O)Nc1cccc(C(F)(F)F)c1
T/C (dose: 12.5 mg/kg/injection, schedule: Q01DX009 (ip), vehicle: saline with Tween-80): 92 % of control
T/C [1]: 89 % of control
T/C [2]: 86 % of control

CCOC(=O)NC(=S)c1cccn1C
T/C [7]: 98 % of control
T/C [12]: 103 % of control
T/C [8]: 105 % of control

O=S(=O)(O)c1ccccc1N=Nc1ccc(N(CCCl)CCCl)cc1
T/C [3]: 156 % of control

CC(=O)Nc1cnc2c(nc3cc(C)ccn32)c1C
T/C [9]: 106 % of control
T/C [10]: 100 % of control
T/C [11]: 97 % of control
